Source: ChEMBL document CHEMBL1201862, “PubChem BioAssay data set” (2004)
Several values for one entry are separate records, joined by “and”; a condition that tells them apart may be missing. Equal values may be shown once.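 A five-concentration, 48-hour dose response in 96-well plates underlies each endpoint, interpolated linearly between surrounding concentrations. GI50: concentration for 50% inhibition of growth.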 Activity calls are given as the source filed them. No stated cut-off is given here; in the data, active = GI50 up to about 1.1 µM and inactive = higher.

Assays:
Assay in all cases: NCI-60 cell line screen, 48 h
[1] = system: SK-MEL-5
[2] = system: NCI-H460
[3] = system: SW-620
[4] = system: SNB-19
[5] = system: SF-295
[6] = system: SF-268
[7] = system: MDA-N
[8] = system: SK-MEL-28
[9] = system: CAKI-1
[10] = system: SF-539
[11] = system: DU-145
[12] = system: OVCAR-3
[13] = system: OVCAR-5
[14] = system: SK-OV-3
[15] = system: OVCAR-4
[16] = system: HOP-92
[17] = system: BT-549
[18] = system: Malme-3M
[19] = system: A498
[20] = system: RXF 393

In the case of CC1C(c2ccc(Cl)cc2)c2cc3c(cc2OC1N1CCOCC1)OCO3 (stereo not given), the GI50 [1] is reported as 51.3 µM (inactive), the GI50 [2] is reported as > 100 µM (inactive) and the GI50 [3] is reported as > 100 µM (inactive). For the same compound, the GI50 [4] was 80.9 µM (inactive), the GI50 [5] was 31.8 µM (inactive) and the GI50 [6] was > 100 µM (inactive). For the same compound, the GI50 [7] was > 100 µM (inactive), the GI50 [8] was > 100 µM (inactive) and the GI50 [9] was 31.8 µM (inactive). For the same compound, the GI50 [10] was 45 µM (inactive), the GI50 [11] was > 100 µM (inactive) and the GI50 [12] was 85.3 µM (inactive). The GI50 [13] was > 100 µM (inactive).
CCOC(=O)C1=C(c2ccccc2)N(C)c2ccccc2S1 was tested, and the GI50 [14] was 92.5 µM (inactive), the GI50 [1] was 16.1 µM (inactive) and the GI50 [15] was 30.1 µM (inactive). For the same compound, the GI50 [2] was 24.7 µM (inactive), the GI50 [16] was 44.5 µM (inactive) and the GI50 [3] was 44.4 µM (inactive). The GI50 [4] was 69.5 µM (inactive), the GI50 [17] was 21.5 µM (inactive) and the GI50 [5] was 35.8 µM (inactive). For the same compound, the GI50 [6] was 29.4 µM (inactive), the GI50 [8] was 38.9 µM (inactive) and the GI50 [9] was 31 µM (inactive). For the same compound, the GI50 [18] was 40.6 µM (inactive), the GI50 [10] was 37.2 µM (inactive) and the GI50 [11] was 44.2 µM (inactive). The GI50 [12] was 36 µM (inactive) and the GI50 [13] was 35.1 µM (inactive).
For O=C(OC(=C(c1ccccc1)c1ccccc1)N1CCCC1=S)C(c1ccccc1)c1ccccc1, the GI50 [14] was 9.18 µM (inactive), the GI50 [19] was 8.63 µM (inactive) and the GI50 [1] was > 10 µM (inactive). For the same compound, the GI50 [15] was 8.83 µM (inactive), the GI50 [2] was 3.58 µM (inactive) and the GI50 [3] was > 10 µM (inactive). The GI50 [20] was > 10 µM (inactive), the GI50 [4] was > 10 µM (inactive) and the GI50 [17] was 5.05 µM (inactive). The GI50 [5] was > 10 µM (inactive), the GI50 [6] was > 10 µM (inactive) and the GI50 [8] was > 10 µM (inactive). The GI50 [9] was > 10 µM (inactive), the GI50 [18] was > 10 µM (inactive) and the GI50 [10] was > 10 µM (inactive). The GI50 [11] was > 10 µM (inactive), the GI50 [12] was 7.6 µM (inactive) and the GI50 [13] was > 10 µM (inactive).
With N#Cc1nn(-c2ccc(Cl)cc2)c(=N)c2c(N)n3nc(-c4ccccc4)cc3nc12 the GI50 [14] was 0.472 µM (active), the GI50 [19] was 1 µM (active) and the GI50 [1] was 0.809 µM (active). For the same compound, the GI50 [15] was 0.857 µM (active), the GI50 [2] was 1 µM (active) and the GI50 [16] was 0.546 µM (active). For the same compound, the GI50 [3] was > 100 µM (inactive), the GI50 [20] was 28.2 µM (inactive) and the GI50 [4] was 1 µM (active). The GI50 [5] was 0.681 µM (active), the GI50 [6] was 0.635 µM (active) and the GI50 [8] was 1 µM (active). For the same compound, the GI50 [9] was 1 µM (active), the GI50 [18] was 1 µM (active) and the GI50 [10] was 0.497 µM (active). For the same compound, the GI50 [12] was 0.804 µM (active) and the GI50 [13] was 1 µM (active).
In the case of Cc1c(C)c2ccc3oc4ccccc4c3c2oc1=O, the GI50 [14] is reported as > 100 µM (inactive), the GI50 [19] is reported as > 100 µM (inactive) and the GI50 [1] is reported as > 100 µM (inactive). The GI50 [15] was > 100 µM (inactive), the GI50 [2] was > 100 µM (inactive) and the GI50 [16] was 52.6 µM (inactive). The GI50 [3] was > 100 µM (inactive), the GI50 [20] was > 100 µM (inactive) and the GI50 [4] was > 100 µM (inactive). For the same compound, the GI50 [5] was 67.3 µM (inactive), the GI50 [6] was > 100 µM (inactive) and the GI50 [8] was > 100 µM (inactive). The GI50 [9] was > 100 µM (inactive), the GI50 [18] was > 100 µM (inactive) and the GI50 [10] was > 100 µM (inactive). For the same compound, the GI50 [12] was > 100 µM (inactive) and the GI50 [13] was > 100 µM (inactive).
C[n+]1c2ccccc2c(/C=N\NS(=O)(=O)c2ccc(Cl)cc2)c2ccccc21 was tested, and the GI50 [14] was > 100 µM (inactive), the GI50 [19] was 35.6 µM (inactive) and the GI50 [1] was 42 µM (inactive). For the same compound, the GI50 [15] was > 100 µM (inactive), the GI50 [2] was 32.4 µM (inactive) and the GI50 [16] was 48.8 µM (inactive). For the same compound, the GI50 [3] was 39.5 µM (inactive), the GI50 [20] was 57.3 µM (inactive) and the GI50 [4] was 59.2 µM (inactive). The GI50 [5] was 59.4 µM (inactive), the GI50 [6] was 69.2 µM (inactive) and the GI50 [8] was 94.8 µM (inactive). The GI50 [9] was 29.7 µM (inactive), the GI50 [18] was > 100 µM (inactive) and the GI50 [10] was 87.5 µM (inactive). For the same compound, the GI50 [12] was 41.8 µM (inactive) and the GI50 [13] was 97.7 µM (inactive).
With C=C1C(=O)OC2CC1C(OC(C)=O)C/C(C)=C/CC/C(C)=C\CCC2(C)O (stereo not given) the GI50 [14] was 19.5 µM (inactive) and 24.5 µM (inactive), the GI50 [19] was 5.22 µM (inactive) and 5.52 µM (inactive) and the GI50 [15] was 6.35 µM (inactive) and 5.73 µM (inactive). The GI50 [2] was 2.11 µM (inactive) and 3.41 µM (inactive), the GI50 [16] was 3.65 µM (inactive) and 2.89 µM (inactive) and the GI50 [3] was 2.64 µM (inactive) and 3.4 µM (inactive). The GI50 [20] was 3.67 µM (inactive), the GI50 [4] was 17.3 µM (inactive) and 15.1 µM (inactive) and the GI50 [5] was 21.3 µM (inactive) and 17.2 µM (inactive). The GI50 [6] was 5.24 µM (inactive) and 5.45 µM (inactive), the GI50 [7] was 2.92 µM (inactive) and 4.09 µM (inactive) and the GI50 [8] was 3.19 µM (inactive) and 2.95 µM (inactive). For the same compound, the GI50 [9] was 4.34 µM (inactive) and 2.96 µM (inactive), the GI50 [18] was 3.25 µM (inactive) and the GI50 [10] was 3.48 µM (inactive) and 5.43 µM (inactive). The GI50 [11] was 3.95 µM (inactive) and 5.77 µM (inactive), the GI50 [12] was 5.93 µM (inactive) and 4.35 µM (inactive) and the GI50 [13] was 10.9 µM (inactive) and 16.5 µM (inactive).
For S=C1/C(=N/c2ccccc2)N(c2ccccc2)/C(=N\c2ccccn2)N1c1ccccc1, the GI50 [14] was 19.9 µM (inactive), the GI50 [19] was 14.5 µM (inactive) and the GI50 [1] was 13.9 µM (inactive). The GI50 [15] was 14.6 µM (inactive), the GI50 [2] was 13.6 µM (inactive) and the GI50 [16] was 13 µM (inactive). The GI50 [3] was 14 µM (inactive), the GI50 [20] was 10 µM (inactive) and the GI50 [4] was 16.3 µM (inactive). The GI50 [5] was 16.3 µM (inactive), the GI50 [6] was 16.6 µM (inactive) and the GI50 [7] was 6.3 µM (inactive). For the same compound, the GI50 [8] was 16.8 µM (inactive), the GI50 [9] was 15.5 µM (inactive) and the GI50 [18] was 16.9 µM (inactive). For the same compound, the GI50 [10] was < 0.01 µM (active), the GI50 [11] was 19.8 µM (inactive) and the GI50 [13] was 16.4 µM (inactive).
